These results are taken from US20220339135A1, “COMPOSITIONS AND METHODS FOR MODULATING AN INFLAMMATORY RESPONSE” (Enzychem Lifesciences Corporation, priority 2019, published 2022).

In experiment [1] the test system is Pseudomonas aeruginosa strain K (PAK) in BALF. The experiment is described as follows: PAK clearance in AC regimen-induced immunocompromised mice. It counts as in vivo. As to conditions: PLAG 250 mg/kg oral once daily 5 days, BALF 3 and 6 hours after infection. The method, then: To establish a chemotherapy-induced immunocompromised mice model, the mice were administered a single intravenous injection of 50 mg/kg cyclophosphamide and 2.5 mg/kg doxorubicin (AC regimen). After 5 days from the injection of AC regimen, blood samples were collected from an intra-orbital vein using EDTA capillary tubes, and the number of circulating neutrophils was measured by complete blood cell count (CBC) analysis using Mindray BC-5300 auto-hematology analyzer (Shenzhen Mindray Bio-medical Electronics, China). Pseudomonas aeruginosa strain K (PAK) was grown overnight in LB broth at 37° C. with agitation and then harvested by centrifugation at 13,000×g for 2 minutes. […] The diluted bacteria were administrated to the mice by intranasal injection. Bronchoalveolar lavage fluid (BALF) samples were collected from the PAK-infected mice at different time points after infection in normal mice model and in AC regimen-induced immunocompromised mice model. […] The number of viable bacteria in BALF was determined by counting the number of colonies formed in the plates. […] The BALF samples were harvested at 3 and 6 hours after the infection, and live PAK in BALF after AC regimen and AC regimen/PLAG treatment was determined by counting with colony-forming units (FIG. 6B).

Experiment [2] deals with ERK, JNK, p38MAPK in differentiated HaCaT cells. Description: IMQ-induced MAPK phosphorylation, western blot. It counts as cell-based. As to conditions: PLAG 1, 10, 100 μg/ml, dose-dependent. The protocol: Differentiated HaCaT cells were divided into three groups: 1) control (non-treated) group, 2) IMQ treated group, and 3) IMQ/PLAG treated group. For IMQ treated group, cells were stimulated with IMQ (5 μg/ml) for 0, 20, 60 minutes. For IMQ/PLAG treated group, cells were pre-incubated with PLAG (1, 10, 100 μg/ml) for 1 hour and then stimulated with IMQ (5 μg/ml) for an hour. Then, cells were harvested. Cells were ruptured with 1×RIPA lysis buffer (Cell Signaling Technology) containing the protease inhibitor (Roche, Indianapolis, Ind., USA), and phosphatase inhibitor (Thermo Fisher Scientific Inc.) on ice. The cell lysates were then clarified by centrifugation and samples were analyzed on polyacrylamide gels. Each sample was separated by sodium dodecyl sulfate-polyacrylamide gel electrophoresis (SDS-PAGE) on polyacrylamide gels and the proteins were blotted onto a PVDF membrane (Bio-Rad). The membrane was blocked with 5% BSA (Gibco) in PBS containing 0.05% Tween-20 (Merck Millipore, Billerica, Mass., USA). The membrane was incubated with antibodies against phosphor-ERK (Thr202/Tyr204), ERK, phosphor-JNK (Thr183/Tyr185), SAPK/JNK, phosphor-p38MAPK (Thr180/thr182), and p38MAPK, overnight at 4° C. All antibodies were purchased from Cell signaling technology. Target proteins were detected with Immobilon Western Chemiluminescent HRP Substrate (Merck Millipore).
In general terms: Immunoblotting shows a protein as a band on a membrane.

In a further experiment the test system is CXCL8 in THP-1 cells. The experiment is described as follows: MSU crystal-induced CXCL8 in CD36 silenced THP-1 cells, ELISA. It counts as cell-based, human. Conditions: PLAG 10, 100 μg/ml. The protocol:
The specific siRNA of CD36 (sc-29995) and control siRNA (sc-37007) were purchased from Santa Cruz Biotechnology. Cells were transfected with 50 nM of either the targeting or control siRNA using HiPerFect Transfection Reagent (Qiagen, Hilden, Germany) for 24 h. The knockdown efficiency of siRNAs was confirmed by Western blot analysis.
Transfected THP-1 cells were pre-incubated with PLAG (10, 100 μg/ml) for 1 hour and then stimulated with MSU crystal (400 μg/ml). After 24 hours, cells were centrifuged, and the supernatant was harvested. The concentrations of CXCL8 in the supernatant of THP-1 cells were measured using Human CXCL8 ELISA kit (BD bioscience, New Jersey, USA) according to the manufacturer's instructions. The cytokine levels were estimated by interpolation from a standard curve using an ELISA reader (Molecular Devices, Sunnyvale, USA) at 450 nm.
For orientation: In an ELISA, binding on a coated surface is turned into a signal by an enzyme label.

The test system of a further experiment is 5-FU-induced neutropenia. The experiment is described as follows: 5-FU-induced neutropenia in mice. The format is in vivo. Conditions: for Mean Duration of Neutropenia in Days (±SE, range) / Mean the First Day Neutropenia (ANC <500 cells/μL) (±SE, range): 5-FU 100 mg/kg. The method, then:
Male BALB/c mice (8 weeks of age) were randomly divided into 3 cohorts; control cohort (n=5), EC-18 125 mg/kg-treated cohort (n=5) and EC-18 250 mg/kg (n=5). The mice were intraperitoneally (i.p.) injected once with 100 mg/kg 5-FU to induce neutropenia, as shown in the experimental scheme (FIG. 46A). EC-18 was suspended in phosphate-buffered saline (PBS) and orally administrated at a dose of 125 or 250 mg/kg once a day, starting on the same day of 5-FU injection. The control cohort was administered PBS only during the experiment. The whole blood was collected from the orbital sinuses using EDTA-free capillary tubes (Kimble Chase Life Science and Research Products LLC, FL, USA) and collection tubes containing K3E-K3EDTA (Greiner Bio-One International, Kremsmünster, Austria). The blood cells were counted and classified by complete blood count (CBC) analysis using Mindray BC-5000 auto-hematology analyzer (Shenzhen Mindray Biomedical Electronics, Guangdong Sheng, China).
The results were expressed as the mean±standard deviation (SD). Statistical analysis was performed using a Student's paired t-test and p values <0.05 were considered statistically significant. A […] Log-rank (Mantel-Cox) test was used to compare the duration of neutropenia and time to recovery from neutropenia between control and EC-18-treated cohorts.

Several values for one entry are separate records, joined by “and”; a condition that tells them apart may be missing. Equal entries are not always repeated.

For the compound `CCCCC/C=C\C/C=C\CCCCCCCC(=O)OC(COC(C)=O)COC(=O)CCCCCCCCCCCCCCC` (racemic) [PLAG, 1-palmitoyl-2-linoleoyl-3-acetylglycerol], in experiment [1], the “bacterial clearance (live PAK CFU in BALF)” value is recorded as “significantly accelerates”. Moreover, the “IMQ-induced phosphorylation of ERK, JNK, p38 MAPK” value in experiment [2] is “attenuated”. Moreover, in the experiment with CXCL8 in THP-1 cells, the “decrease of CXCL8 induced by MSU crystal” value is “still shown”. In the experiment on 5-FU-induced neutropenia (EC-18 125 mg/kg), the “Mean Duration of Severe Neutropenia in Days (±SE, range)” value was 2 (6-7) Days; the “Mean Number of Days to Recovery - ANC ≥ 500/μL (±SE, range)” value is 7.4 ± 0.55 (7-8) Days; the “Mean Number of Days to Recovery - ANC ≥ 1000/μL (±SE, range)” value is reported as 8 ± 1.22 (7-10) Days; the “Number of Individuals of Severe Neutropenia (ANC <100 cells/μL)” value is 1/5. In the experiment with 5-FU-induced neutropenia (EC-18 125 mg/kg), the “Mean Duration of Neutropenia in Days (±SE, range)” value was 2.6 ± 0.55 (5-8) Days and the “Mean the First Day Neutropenia (ANC <500 cells/μL) (±SE, range)” value is 5.8 ± 0.45 (5-6) days. For the same compound, the “Nadir of ANC” value in the experiment on 5-FU-induced neutropenia (EC-18 125 mg/kg, 125 mg/kg) was 236±4.47 cells/μL and 236 ± 121.57 cells/μL. In the experiment with 5-FU-induced neutropenia (EC-18 250 mg/kg), the “Mean Duration of Severe Neutropenia in Days (±SE, range)” value was 2 (6-7) Days; the “Mean Number of Days to Recovery - ANC ≥ 500/μL (±SE, range)” value is recorded as 7.6 ± 0.55 (7-8) Days; the “Mean Number of Days to Recovery - ANC ≥ 1000/μL (±SE, range)” value is recorded as 8.8 ± 1.09 (7-10) Days; the “Number of Individuals of Severe Neutropenia (ANC <100 cells/μL)” value is on record as 1/5. Further, in the experiment on 5-FU-induced neutropenia (EC-18 250 mg/kg), the “Mean Duration of Neutropenia in Days (±SE, range)” value is on record as 3.0 ± 0.71 (5-8) Days and the “Mean the First Day Neutropenia (ANC <500 cells/μL) (±SE, range)” value is reported as 5.8 ± 0.45 (5-6) days. Moreover, the “Nadir of ANC” value with 5-FU-induced neutropenia (EC-18 250 mg/kg, 250 mg/kg) amounted to 158±11.32 cells/μL. Besides, the “time of recovery to an ANC≥500 or 1000 cells/μL” value in the experiment on 5-FU-induced neutropenia (EC-18 125 and 250 mg/kg-treated cohorts) is recorded as “significantly reduced”. In addition, in the experiment with 5-FU-induced neutropenia (EC-18 125 or 250mpk), the “5-FU-induced reduction of blood monocytes” value is given as “remarkably mitigated”. The “duration of severe neutropenia” value in the experiment on 5-FU-induced neutropenia (EC-18, dose not split in text) worked out at 2 days. The “individuals that experienced severe neutropenia (ANC<100 cells/μL)” value with 5-FU-induced neutropenia (both EC-18 125 and 250 mg/kg-treated cohorts) amounted to 20%.
